Reference: US10294228B2, “Breathing control modulating compounds, and methods of making and using same” (NEURAD LTD., priority 2015, dated 2019)
Structures can show the parent of a compound that is named as a salt.

Test system: anesthetized rats
Assay: Anesthetized rat spirometry screening assay (ventilatory activity, minute volume)
Assay type: in vivo
Details: increase in minute volume (VE); for change in vivo at 0.3 mg/kg: 0.3 mg/kg IV bolus, read-out: VE % Inc @ 0.3 mg/kg IV; for change in vivo at 3 mg/kg: 3.0 mg/kg IV bolus, read-out: VE % Inc @ 3.0 mg/kg IV
Outline: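 Urethane-anesthetized (1.5 g/kg i.v.) rats with tracheal cannula to pneumotachometer; minute volume derived from respiratory rate × tidal volume. Compounds given as i.v. bolus at 0.1 and/or 0.3 and/or 3 mg/kg, monitored at least 6 min; data as 30 s averages.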

Row | SMILES | change in vivo at 0.3 mg/kg [%] | change in vivo at 3 mg/kg [%]
1 | CC[C@H](C)Nc1nc(NC)c2nc(NC[C@H](C)O)nc(NC)c2n1 [Compound 105, (S)-1-[6-((S)-sec-Butylamino)-4,8-bis-methylamino-pyrimido[5,4-d]pyrimidin-2-ylamino]-propan-2-ol] | 14 | 120
2 | CCCNc1nc(NC)c2nc(N[C@H]3CCCC[C@H]3O)nc(NC)c2n1 [Compound 131, (1R,2S)-2-(4,8-Bis-methylamino-6-propylamino-pyrimido[5,4-d]pyrimidin-2-ylamino)-cyclohexanol] | 18 | 142
3 | CNc1nc(N(C)C)nc2c(NC)nc(NCCO)nc12 [Compound 92, 2-(6-Dimethylamino-4,8-bis-methylamino-pyrimido[5,4-d]-pyrimidin-2-ylamino)-ethanol] | 49 | 148
4 | CCCNc1nc(NC)c2nc(N[C@H]3c4ccccc4C[C@H]3O)nc(NC)c2n1 [Compound 127, (1S,2R)-1-(4,8-Bis-methylamino-6-propylamino-pyrimido[5,4-d]-pyrimidin-2-ylamino)-indan-2-ol] | 81 | 108
5 | CNc1nc(NCC(C)(C)O)nc2c(NC)nc(NCc3ncccn3)nc12 [Compound 109, 1-{4,8-Bis-methylamino-6-[(pyrimidin-2-ylmethyl)-amino]-pyrimido[5,4-d]pyrimidin-2-ylamino}-2-methyl-propan-2-ol] | 21 | 10
6 | CCNc1nc(NC[C@H](C)O)nc2c(NCC)nc(N)nc12 [Compound 172, (S)-1-(6-Amino-4,8-bis-ethylamino-pyrimido[5,4-d]-pyrimidin-2-ylamino)-propan-2-ol] | 5 | 155
7 | CCCNc1nc(NC)c2nc(N(C)CC(C)O)nc(NC)c2n1 (stereo not drawn) [Compound 97, 1-[(4,8-Bis-methylamino-6-propylamino-pyrimido[5,4-d]pyrimidin-2-yl)-methyl-amino]-propan-2-ol] | 49 | 140
8 | C=CCNc1nc(NC)c2nc(NCCO)nc(NC)c2n1 [Compound 154, 2-(6-Allylamino-4,8-bis-methylamino-pyrimido[5,4-d]pyrimidin-2-ylamino)-ethanol] | 40 | 103
9 | CCNc1nc(NC[C@@H](C)O)nc2c(NCC)nc(N)nc12 [Compound 171, (R)-1-(6-Amino-4,8-bis-ethylamino-pyrimido[5,4-d]-pyrimidin-2-ylamino)-propan-2-ol] | 17 | 175
10 | CCCNc1nc(NC)nc2c(N3CCC(O)C3)nc(NC)nc12 (stereo not drawn) [Compound 71a, 1-(2,6-Bis-methylamino-8-propylamino-pyrimido[5,4-d]pyrimidin-4-yl)-pyrrolidin-3-ol Hydrochloride] | 17 | 84
11 | CC[C@H](C)Nc1nc(NC)nc2c(NCC(C)(C)O)nc(NC)nc12 [Compound 42a, 1-[8-((S)-sec-Butylamino)-2,6-bis-methylamino-pyrimido[5,4-d]-pyrimidin-4-ylamino]-2-methyl-propan-2-ol Hydrochloride] | 76 | 149
12 | CCCNc1nc(NC)c2nc(N[C@H]3CCC[C@@H]3O)nc(NC)c2n1 [Compound 139, (1S,2S)-2-(4,8-Bis-methylamino-6-propylamino-pyrimido[5,4-d]pyrimidin-2-ylamino)-cyclopentanol] | 90 | 114
13 | CCCNc1nc(NC)nc2c(NC[C@H](C)O)nc(NC)nc12 [Compound 12a, (S)-1-(2,6-Bis-methylamino-8-propylamino-pyrimido[5,4-d]pyrimidin-4-ylamino)-propan-2-ol hydrochloride] | 114 | –
14 | CCCNc1nc(NCC)c2nc(NCCO)nc(NCC)c2n1 [Compound 162, 2-(4,8-Bis-ethylamino-6-propylamino-pyrimido[5,4-d]pyrimidin-2-ylamino)-ethanol] | 187 | 216
15 | CCCNc1nc(NC)c2nc(N[C@@H]3CCCC[C@@H]3O)nc(NC)c2n1 [Compound 135, (1S,2R)-2-(4,8-Bis-methylamino-6-propylamino-pyrimido[5,4-d]pyrimidin-2-ylamino)-cyclohexanol] | 22 | 142
16 | CCCNc1nc(NC)c2nc(NCC(C)O)nc(NC)c2n1 (stereo not drawn) [Compound 95, 1-(4,8-Bis-methylamino-6-propylamino-pyrimido[5,4-d]-pyrimidin-2-ylamino)-propan-2-ol] | 138 | –

Row | SMILES | change in vivo at 0.3 mg/kg [%] | change in vivo at 3 mg/kg [%]
17 | CCCNc1nc(NC)nc2c(N[C@H]3CCC[C@@H]3O)nc(NC)nc12 [Compound 86, (1S,2S)-2-(2,6-Bis-methylamino-8-propylamino-pyrimido[5,4-d]pyrimidin-4-ylamino)-cyclopentanol] | 26 | 92
18 | CCNc1nc(NCC(C)(C)O)c2nc(NCC)nc(NCC(F)F)c2n1 [Compound 47a, 1-[8-(2,2-difluoro-ethylamino)-2,6-bis-ethylamino-pyrimido[5,4-d]pyrimidin-4-ylamino]-2-methyl-propan-2-ol hydrochloride] | 31 | –
19 | CC[C@@H](C)Nc1nc(NC)nc2c(NCC(C)(C)O)nc(NC)nc12 [Compound 40a, 1-[8-((R)-sec-Butylamino)-2,6-bis-methylamino-pyrimido[5,4-d]-pyrimidin-4-ylamino]-2-methyl-propan-2-ol Hydrochloride] | 79 | 158
20 | CCCNc1nc(NC)nc2c(N[C@@H](C)CO)nc(NC)nc12 [Compound 18a, (S)-2-(2,6-Bis-methylamino-8-propylamino-pyrimido[5,4-d]-pyrimidin-4-ylamino)-propan-1-ol Hydrochloride] | 50 | –
21 | CNc1nc(NCC(C)(C)O)c2nc(NC)nc(NC)c2n1 [Compound 48a, 2-Methyl-1-(2,6,8-tris-methylamino-pyrimido[5,4-d]-pyrimidin-4-ylamino)-propan-2-ol Hydrochloride] | 20 | 78
22 | CNc1nc(NCC(C)(C)O)c2nc(NC)nc(NCc3ncccn3)c2n1 [Compound 38a, 1-{2,6-Bis-methylamino-8-[(pyrimidin-2-ylmethyl)-amino]-pyrimido[5,4-d]pyrimidin-4-ylamino}-2-methyl-propan-2-ol Hydrochloride] | 18 | 27
23 | CNc1nc(NCC(C)(C)O)c2nc(NC)nc(NCC(F)F)c2n1 [Compound 36a, 1-[8-(2,2-Difluoro-ethylamino)-2,6-bis-methylamino-pyrimido[5,4-d]pyrimidin-4-ylamino]-2-methyl-propan-2-ol Hydrochloride] | 34 | –
24 | CCCNc1nc(NC)nc2c(N[C@H]3c4ccccc4C[C@@H]3O)nc(NC)nc12 [Compound 78, (1S,2S)-1-(2,6-Bis-methylamino-8-propylamino-pyrimido[5,4-d]-pyrimidin-4-ylamino)-indan-2-ol] | 173 | 180
25 | CCCNc1nc(NCC)nc2c(NCC(C)(C)O)nc(NCC)nc12 [Compound 32a, 1-(2,6-Bis-ethylamino-8-propylamino-pyrimido[5,4-d]-pyrimidin-4-ylamino)-2-methyl-propan-2-ol hydrochloride] | 201 | –
26 | CCCNc1nc(NC)nc2c(N(C)CC(C)O)nc(NC)nc12 (stereo not drawn) [Compound 73a, 1-[(2,6-Bis-methylamino-8-propylamino-pyrimido[5,4-d]-pyrimidin-4-yl)-methyl-amino]-propan-2-ol Hydrochloride] | 16 | 79
27 | C=C(C)CNc1nc(NC)c2nc(NC[C@H](C)O)nc(NC)c2n1 [Compound 159, (S)-1-[6-(2-Methyl-allylamino)-4,8-bis-methylamino-pyrimido[5,4-d]-pyrimidin-2-ylamino]-propan-2-ol] | 61 | 160
28 | CCCNc1nc(NC)nc2c(N[C@H](C)CO)nc(NC)nc12 [Compound 20a, (R)-2-(2,6-Bis-methylamino-8-propylamino-pyrimido[5,4-d]-pyrimidin-4-ylamino)-propan-1-ol Hydrochloride] | 107 | –
29 | CCNc1nc(NC)c2nc(NCC(O)CC)nc(NC)c2n1 (stereo not drawn) [Compound 147, 1-(6-Ethylamino-4,8-bis-methylamino-pyrimido[5,4-d]pyrimidin-2-ylamino)-butan-2-ol] | 31 | 147
30 | C=C(C)CNc1nc(NCC)c2nc(NC[C@@H](C)O)nc(NCC)c2n1 [Compound 174, (R)-1-[4,8-Bis-ethylamino-6-(2-methyl-allylamino)-pyrimido[5,4-d]-pyrimidin-2-ylamino]-propan-2-ol] | 72 | 114
31 | CCCNc1nc(NC)nc2c(N(C)CC(C)(C)O)nc(NC)nc12 [Compound 76, 1-[(2,6-Bis-methylamino-8-propylamino-pyrimido[5,4-d]pyrimidin-4-yl)-methyl-amino]-2-methyl-propan-2-ol] | 37 | 71
32 | CNc1nc(NCC(C)(C)O)nc2c(NC)nc(NCC(F)F)nc12 [Compound 107, 1-[6-(2,2-Difluoro-ethylamino)-4,8-bis-methylamino-pyrimido[5,4-d]pyrimidin-2-ylamino]-2-methyl-propan-2-ol] | 14 | 95
